Data on two compounds can be found in PMC5459956 (International Journal of Nanomedicine, 2017).

The subject of data set [1] is healthy bronchial epithelial cells. Particulars: in vitro; cited from earlier work.
For data set [2] the following is noted: cited from earlier work.
The subject of data set [3] is MV-4–11 cells. Description: MV-4–11 cytotoxicity assay. The data set is classed as cell-based. Particulars: read-out: 72-h IC50, 72 h exposure, PrestoBlue.
Data set [4] relates to ROS generation in MV-4–11 cells. Description: Reactive oxygen species assay. The data set is classed as cell-based. The note with it: 4 h, Cu(DDC)2 200 µM, menadione 50 µM, versus cell-free condition.

The IC50 is the point on the concentration scale where inhibition reaches its midpoint.

As to `CCN(CC)C(=S)[S-].CCN(CC)C(=S)[S-].[Cu+2]` [Cu(DDC)2, Copper diethyldithiocarbamate], the “effect in healthy bronchial epithelial cells” value in data set [1] is on record as “did not have any effect”. In addition, the “solubility (slightly soluble precipitate)” value in data set [2] was under 100 µg/mL. In addition, the IC50 in data set [3] is about 110 nM.

Consider `CC1=CC(=O)c2ccccc2C1=O` [Menadione, menadione], for which the ROS generation entry in data set [4] is on record as “ROS formation in the cells was evident”.
